Patent US8350118B2, “Allergic disease model animals” (Keio University, priority 2008, dated 2013)

Tested on: Langerhans cells
Assay: corneum-barrier transmission: uptake into Langerhans cells after application to ear skin surface
Type: in vivo, mouse
Details: 7 weeks of age, 10 mg/mL applied to skin surface inside the ear, ears collected after 24 hours
Text: To confirm that the skin-barrier function is impaired in FLG-gene deficient mice, a method was developed for evaluating skin-barrier function based on the amount of uptake of antigen into Langerhans cells that are antigen-presenting cells in epidermis, to examine the skin-barrier function in FLG^−/− mice and wild-type mice. In a conventional method for evaluating antigen uptake into Langerhans cells by externally applying antigen to the skin, reagents such as FITC that easily pass through the corneum barrier has been used. However, a change in the corneum-barrier transmission due to loss of filaggrin cannot be observed by the methods using reagents that easily pass through the corneum barrier. Thus the present inventors established for the first time a method for evaluating corneum-barrier transmission using sulfo-NHS-LC-biotin which is a cell-membrane impermeable, protein-biotinylating reagent. This method has enabled the observation of a change in corneum-barrier transmission. The structural formula of sulfo-NHS-LC-biotin is shown below. Sulfo-NHS-LC-biotin (#21335; Thermo Scientific) was applied to a FLG^−/− mouse and a wild-type littermate mouse at 7 weeks of age on the skin surface inside the ear, and the uptake into Langerhans cells was observed under a fluorescence microscope. […]

Structure (SMILES): O=C(CCCCC1SCC2NC(=O)NC21)NCCCCCC(=O)ON1C(=O)CC(S(=O)(=O)[O-])C1=O.[Na+] (centres unmarked) [biotin, sulfo-NHS-LC-biotin]
- biotin uptake into Langerhans cells (FLG−/− mouse): biotin (green) taken up was accumulated in Langerhans cell body (red)
- biotin uptake into Langerhans cells (wild-type littermate mouse): no biotin (green) uptake into Langerhans cells (red) was observed
